Tests used:
OPN [1] = assay: OPN expression in osteoblastic cells treated with cyclopamine (qRT-PCR, immunoblot); assay type: cell-based, human
Description: Quantitative RT-PCR (qRT-PCR)—cDNA was generated using High Capacity Reverse Transcriptase Kit (Applied Biosystems, Foster City, Calif.). Real time PCR was performed using a BioRad iQ5 Real-Time Detection system (Bio-Rad, Hercules, Calif.). All reactions were done in triplicate. OPN transcript levels were normalized to GAPDH levels (dCT) which was used to calculate changes in OPN expression (2-ddCT). […] The primers used included Sppl (OPN) (Mm 00436767_m1); Bglap (osteocalcin) (Mm 01741771_g1); IBSP (Mm 00492555_m1); PTHrP (Mm 00433057_m1); RANKL (Mm 00441906_m1); GAPDH (Mm 99999915_g1).

[2] = test system: OPN, MMP9, and Cathepsin K (CTSK); assay: OPN, MMP9 and Cathepsin K expression in osteoclasts (qRT-PCR); assay type: cell-based, murine; conditions: osteoclasts with breast cancer conditioned medium; relative to DM
Description: Quantitative RT-PCR (qRT-PCR)—cDNA was generated using High Capacity Reverse Transcriptase Kit (Applied Biosystems, Foster City, Calif.). Real time PCR was performed in two cycles using a BioRad iQ5 Real-Time Detection system (Bio-Rad, Hercules, Calif.): the first cycle of 95° C. for 10 mins followed by 40 repeats of the second cycle comprising 95° C. for 15 sec followed by 60° C. for 1 min. All reactions were done in triplicate. Transcript levels were normalized to GAPDH levels (dCT) which was used to calculate changes in gene expression (2-ddCT). […] Following the experimental regime as described herein (for Osteoclast differentiation/activity) RNA was isolated using Trizol (Invitrogen) and assessed as described herein. The details of the primers used were as follows: OPN (Spp1; Mm00436767_m1), Matrixmetalloprotease 9 (MMP9; Mm00600163_m1), Cathepsin K (Ctsk; Mm00484036_m1), SHH (Hs00179843_m1), GLI1 (Hs01110766_m1), OPN (Hs00959010_m1), hGAPDH (Hs99999905_m1) and GAPDH (Mm99999915_g1).

SHH and IHH = SHH and IHH protein expression in A2780 and A2780-CP70 cells (Western blot); assay type: cell-based, human; conditions: cyclopamine
c-jun = c-jun and c-fos protein expression and c-jun phosphorylation in A2780-CP70 cells (Western blot); assay type: cell-based, human; conditions: cyclopamine
Description: c-jun protein expression was assessed in cisplatin-treated A2780-CP70 cells using Western blot analysis.
Protein expression of c-fos and phosphorylation of c-jun in cyclopamine-treated A2780-CP70 cells was assessed using Western blot analysis. Protein levels for c-jun, c-fos, phosphorylated c-jun (Ser 63), phosphorylated c-jun (Ser 73), and phosphorylated c-jun (Thr 91, Thr 93) were tested in cytosolic, nuclear, and whole cell fractions at 0 hr, 6 hr, 24 hr, 48 hr, and 72 hr. Internal controls for cytosolic and nuclear fractions included α-tubulin and histone deacetylase 3.
Phosphorylation of c-jun in A2780-CP70 cells transfected with anti-GLI1 shRNA construct was assessed using Western blot analysis. Protein levels for c-jun, phosphorylated c-jun (Ser 63), phosphorylated c-jun (Ser 73), and phosphorylated c-jun (Thr 91, Thr 93) were examined at 0 hr, 6 hr, 24 hr, 48 hr, and 72 hr.

ERCC1, XPD, XRCC1 = assay: ERCC1, XPD and XRCC1 mRNA levels in A2780-CP70 cells (semi-quantitative PCR); assay type: cell-based, human; conditions: single agent at levels associated with 50% cell killing; 6-72 hr
pancreatic cancer = conditions: blockade of Hedgehog signaling, inhibiting EMT; cited from earlier work
OPN [3] = assay: OPN expression in RAW264.7 pre-osteoclasts in response to SHH; assay type: cell-based, murine; conditions: RAW264.7 cells
Description: Western Blotting Analysis—Whole cell lysates were collected in NP-40 buffer (150 mM NaCl, 50 mM Tris, 1% NP-40). Total protein (30 μg) was resolved by SDS-PAGE gel and transferred to PVDF membranes. Membranes were immunoblotted overnight at 4° C. with antibodies to either SHH (Santacruz, Calif., USA) or IHH (Santacruz). Equal loading was confirmed with anti-β-tubulin (Cell Signaling, Danvers, Mass.). To assess OPN expression upon SHH treatment, […] were grown in 6-well plates in the presence of SHH. After 24 hours the cells were lysed in NP-40 buffer and 30 μg of each experimental group assessed by immunoblotting. To assess for the expression of OPN, MMP9 and CTSK, at the end of Day 6 of differentiation, all the different experimental groups were kept in serum free medium for 24 hrs and both, the conditioned media and whole cell lysates were collected and immunoblotted using antibodies to either anti-mouse OPN (Millipore, Bedford, Mass.), or CTSK (SantaCruz Biotech). Equal loading was confirmed with anti-β-actin (Sigma) antibody. Secreted MMP9 (Santa Cruz Biotech) was assessed by loading equal quantity of protein from the serum-free conditioned medium. Corresponding HRP conjugated secondary antibodies were used for detection; blots were developed with SuperSignal enhanced chemiluminescence substrate (Pierce, Rockford, Ill.) and imaged using a Fuji LAS3000 imager. Detection and quantification of proteins was done using Fuji LAS 3000 apparatus and Multigauge V3.1 software (Fujifilm, Valhalla, N.Y.). Band intensities were measured in arbitrary Units (AU). […]
Luciferase Assay—Cells were co-transfected with the OPN promoter construct, pGL3-OPNB and pSV-β-galactosidase (Promega) (Das, S., et al. (2009) J Biol Chem 284, 22888-22897). […] Readings were normalized to β-galactosidase. […]
Quantitative RT-PCR (qRT-PCR)—cDNA was generated using High Capacity Reverse Transcriptase Kit (Applied Biosystems, Foster City, Calif.). […] Following the experimental regime as described herein (for Osteoclast differentiation/activity) RNA was isolated using Trizol (Invitrogen) and assessed as described herein. […]

With `CC1=C2C[C@H]3[C@@H](CC=C4C[C@@H](O)CC[C@@]43C)[C@@H]2CC[C@]12O[C@@H]1C[C@H](C)CN[C@H]1[C@H]2C` [cyclopamine] the “OPN mRNA levels” value (OPN [1]; hFOB cells, cyclopamine 5 μM, 10 μM, 20 μM) was “decreases OPN mRNA levels”, the “expression of total OPN” value (OPN [1]; osteoblastic cells in presence of cyclopamine) was “decreased” and the “secreted OPN” value (OPN [1]; osteoblastic cells, cyclopamine 5, 10 and 20 μM, dose and time dependent) was “decreased”. The “expression of OPN transcript” value (OPN [1]; osteoblastic cells, cyclopamine (20 μg/ml), real time PCR) was “decreased the expression of OPN transcript”, the “levels of CTSK” value [2] was “significantly decreased” and the “levels of MMP9” value [2] was “significantly decreased”. The “levels of OPN” value [2] was “significantly decreased”, the IHH protein levels (SHH and IHH; 24 hr) was “reduced” and the SHH protein levels (SHH and IHH; 24 hr) was “reduced”. For the same molecule, the IHH protein levels (SHH and IHH; 48 hr and 72 hr) was “rebounded”, the SHH protein levels (SHH and IHH; 48 hr and 72 hr) was “rebounded” and the c-fos protein levels (c-jun) was “increased substantially at 6 hr”. The “phosphorylated c-jun (Ser 73)” value (c-jun) was “gradual increase in levels at 24 hour, 48 hr, and 72 hr”, the “phosphorylated c-jun (Thr 91, Thr 93)” value (c-jun) was “peak levels at 6 hr” and the “expression of c-jun protein in nuclear fractions” value (c-jun; 0-72 hr) was “peaked at 48 hr”. For the same molecule, the “phosphorylated c-jun (Ser 63)” value (c-jun; 0-72 hr) was “no substantial expression was detected over 72 hr”, the c-jun protein levels (c-jun; cytosolic and nuclear fractions) was “increased in cytosolic and nuclear fractions at 48 hr and 72 hr” and the “mRNAs for ERCC1, XPD, or XRCC1” value (ERCC1, XPD, XRCC1) was “no increase”. For the same molecule, the “pancreatic cancer invasion and metastasis” value (pancreatic cancer) was “suppressed pancreatic cancer invasion and metastasis”.
For “SHH: recombinant Sonic Hedgehog ligand (R & D Systems)”, the “expression of OPN (immunoblot)” value (OPN [3]; 24 hours post SHH treatment) was “stimulates the expression of OPN”, the OPN promoter activity (OPN [3]; 24 hours post-SHH treatment) was “significantly (p<0.05) higher” and the “levels of OPN mRNA” value (OPN [3]; recombinant SHH vs untreated) was “significantly greater levels of OPN mRNA”.
